Starred links: 1 amine or outer side, 2 acyl side, 3 side chain; linkers in the order of their positions; H or OH if unused. Residues, ends and D or L forms follow the SMILES beside them. *: point of attachment. AMC = Cc1cc(=O)oc2cc(N*)ccc12; Suc = O=C(CCC(=O)[*:2])[*:1]; Cbz = O=C(OCc1ccccc1)*; Boc = CC(C)(C)OC(=O)*
Biological target: T1, proteasome (Rattus norvegicus, UniProt P28073+P28075+Q9JHW0)
T1 construct: gene Psmb5; native, not purified; soluble fraction (100,000 g supernatant) of liver, brain or lens homogenate; 20S/26S and immunoproteasome content not resolved; with Proteasome subunit beta type-1; Proteasome subunit beta type-2; Proteasome subunit beta type-3; Proteasome subunit beta type-4; Proteasome subunit alpha type-1; Proteasome subunit alpha type-2; Proteasome subunit alpha type-3; Proteasome subunit alpha type-4; Proteasome subunit alpha type-5; Proteasome subunit alpha type-6; Proteasome subunit alpha type-7
Assay: fluorogenic AMC release, Lineweaver-Burk plot
Assay type: biochemical
Details: liver soluble fraction, Tris pH 7.5, EDTA, 2 mM DTT, 37°C, per-animal values versus age, brain and lens in Figures 2 and 3

**Q.** `Cc1cc(=O)oc2cc(NC(=O)[C@H](Cc3ccc(O)cc3)NC(=O)[C@@H](NC(=O)[C@H](CC(C)C)NC(=O)[C@H](CC(C)C)NC(=O)CCC(=O)O)C(C)C)ccc12` [LLVY, Suc-Leu-Leu-Val-Tyr-AMC] (Suc-LLVY-{AMC}) was tested. Which K m (chymotrypsin-like site (beta5)) did it give?
**A.** Michaelis-Menten constants (K m) of the proteasome in rat liver versus age

**Q.** For `Cc1cc(=O)oc2cc(NC(=O)[C@H](CCCNC(=N)N)NC(=O)CNC(=O)[C@@H](NC(=O)OC(C)(C)C)C(C)C)ccc12` [VGR, Boc-Val-Gly-Arg-AMC] (Boc-Val-Gly-Arg-{AMC}), which K m (trypsin-like site (beta2)) is on record?
**A.** Michaelis-Menten constants (K m) of the proteasome in rat liver versus age

**Q.** Which K m (peptidylglutamyl peptidase site (beta1)) does the source give for `Cc1cc(=O)oc2cc(NC(=O)[C@H](CCC(=O)O)NC(=O)[C@H](CC(C)C)NC(=O)[C@H](CC(C)C)NC(=O)OCc3ccccc3)ccc12` [LLE, Z-Leu-Leu-Glu-AMC] (Cbz-Leu-Leu-Glu-{AMC}) here?
**A.** Michaelis-Menten constants (K m) of the proteasome in rat liver versus age

Reference: paper PMC2850129, “Changes in Activity and Kinetic Properties of the Proteasome in Different Rat Organs during Development and Maturation” (Current Gerontology and Geriatrics Research, 2010)
